Test results from US12357629B2, “Uses of BCL-2 antagonists for treating cancer and diagnostics related thereto” (Emory University, priority 2018, dated 2025).
“Also recorded” adds a separate entry of the source. Like-named read-outs stand apart in the source and are kept apart here.

Legend:
[1] = tested on: ABT-199 resistant MM lines (KMS11, L363, RPMI-8226, MM.1S, U266)
Method: Complex I inhibition with piercidin or SDHA inhibition with 3-NPA. L363, MM.15 and KMS 11 cells were cultured in the presence or absence of 0.S μM ABT-199 with or without either Complex I inhibitor piericidin (0.001 mM) or Complex II inhibitor 3NPA (1 mM) or TTFA (100 μM) for 24 hrs.
KMS11, L363, RPMI-8226, MM.1S, U266 (ABT-199 resistant cell lines) and KMS12PE and OCIMY5 (ABT-199 sensitive cell lines) were cultured in presence of SQR inhibitor TTFA (100 uM) or DEX (0.5 uM) either alone or in combination with ABT-199 (0.5 uM) for 24 hrs. Cell viability was assessed by Annexin V-DAPI staining and Flow cytometry.
Resistant MM lines were treated with TTFA and/or a dose range of ABT-199 and cell death evaluated by Annexin V/DAPI staining.

[2] = tested on: MM patients exhibiting the (11;14) translocation; conditions: t(11;14) patients, cited from earlier work
[3] = tested on: normal cell populations contained within the bone marrow aspirate of patient sample; assay: Cytotoxicity in normal cells within myeloma patient sample; format: cell-based
Text: Synthetic lethality are not cytotoxic as a single agent in cell lines or primary normal cells associated with a myeloma patient sample.

[4] = tested on: CD38+ve MM cells from myeloma patient samples; assay: Cytotoxicity in myeloma patient sample cells; format: cell-based, human; conditions: TTFA with ABT-199
[5] = tested on: BIM, BIM-Bcl-2 binding, Foxo3a; assay: Protein expression and co-immunoprecipitation analyses upon SDH inhibition; format: cell-based
Text: Thus, a tumor selective approach of metabolically-driven synthetic lethality relies on inhibition of the mitochondrial enzyme SDH and use of the Bcl-2 antagonist, e.g., ABT-199 for myeloma therapy.

[6] = molecular target: Complex II/SDH succinate ubiquinone reductase (SQR) activity (Homo sapiens, UniProt O14521+P21912+P31040+Q99643); assay: SQR (succinate ubiquinone reductase) activity assay in permeabilized cells, DCPIP absorbance at 600 nm; conditions: for SQR activity upon addition of inhibitor: KMS11 cells, 20 mM succinate as substrate, malonate 5 mM
Sequence of Complex II/SDH succinate ubiquinone reductase (SQR) activity (P31040 43-664): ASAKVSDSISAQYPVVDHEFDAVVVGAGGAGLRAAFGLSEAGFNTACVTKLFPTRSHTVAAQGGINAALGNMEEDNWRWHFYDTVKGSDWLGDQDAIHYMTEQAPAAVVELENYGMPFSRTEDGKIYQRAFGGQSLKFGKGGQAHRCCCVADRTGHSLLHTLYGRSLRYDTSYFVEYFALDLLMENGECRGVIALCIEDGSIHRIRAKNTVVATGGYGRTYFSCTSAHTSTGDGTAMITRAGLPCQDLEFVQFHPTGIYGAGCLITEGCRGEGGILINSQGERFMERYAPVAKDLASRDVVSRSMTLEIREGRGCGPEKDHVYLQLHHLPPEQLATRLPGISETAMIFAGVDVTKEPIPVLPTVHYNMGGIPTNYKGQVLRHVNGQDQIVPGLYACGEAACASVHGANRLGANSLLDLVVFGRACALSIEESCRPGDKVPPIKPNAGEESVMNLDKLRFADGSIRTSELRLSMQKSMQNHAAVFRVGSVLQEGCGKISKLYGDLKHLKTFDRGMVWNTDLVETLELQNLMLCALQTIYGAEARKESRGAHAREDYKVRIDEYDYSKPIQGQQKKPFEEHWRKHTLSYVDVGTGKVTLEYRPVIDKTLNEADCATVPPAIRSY
Sequence of Complex II/SDH succinate ubiquinone reductase (SQR) activity (P21912 29-280): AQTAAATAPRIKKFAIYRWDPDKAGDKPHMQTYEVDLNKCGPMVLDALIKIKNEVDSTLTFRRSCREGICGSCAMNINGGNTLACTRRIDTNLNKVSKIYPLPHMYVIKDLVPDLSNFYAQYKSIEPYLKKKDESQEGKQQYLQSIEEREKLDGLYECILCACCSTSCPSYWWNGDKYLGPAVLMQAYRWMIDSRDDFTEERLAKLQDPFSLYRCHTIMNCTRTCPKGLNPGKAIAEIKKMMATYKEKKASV
Sequence of Complex II/SDH succinate ubiquinone reductase (SQR) activity (Q99643 30-169): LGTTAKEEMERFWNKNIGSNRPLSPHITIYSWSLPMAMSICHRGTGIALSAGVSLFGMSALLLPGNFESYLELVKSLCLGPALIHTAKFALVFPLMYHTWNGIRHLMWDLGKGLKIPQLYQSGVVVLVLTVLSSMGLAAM
Sequence of Complex II/SDH succinate ubiquinone reductase (SQR) activity (O14521 57-159): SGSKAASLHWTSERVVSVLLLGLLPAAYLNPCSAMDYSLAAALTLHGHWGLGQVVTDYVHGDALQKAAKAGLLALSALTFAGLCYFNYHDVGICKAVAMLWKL
Method: Cells are resuspended in permeabilization buffer (10 mM KH2PO4 pH 7.8, 2 mM EDTA and 1 mg/ml BSA). 20 mM succinate is added as a substrate with or without 5 mM malonate (an SDH inhibitor) followed by a 10 min incubation at RT. SQR activity is determined by measuring electron transfer from succinate to decylubiquinone and 2,6-dichlorophenolindophenol (DCPIP) that leads to a change in absorbance of DCPIP monitored at 600 nm for 10 min.
SQR activity is measured in live permeabilized cells, with intact mitochondria by pre-treating with inhibitors of Complex I (rotenone) and Complex III (antimycin) leaving Complex II/SDH activity intact. SQR activity correlates with electron transfer from ubiquinone bound in SQR's Qp site to the redox sensitive dye, DCIPIP.

[7] = ABT-199 0.5 μM with TTFA 100 μM, piericidin 0.001 mM or 3NPA 1 mM, 24 hrs, Annexin V/DAPI

O=C(O)CC[N+](=O)[O-] [3-NPA]
Sensitization of resistant MM cell lines to ABT-199 [1, 7]: not as effective
Sensitization of resistant MM cell lines to ABT-199 ([1]; ABT-199 0.5 μM with TTFA 100 μM, piericidin 0.001 mM or 3NPA 1 mM, 24 hrs, Annexin V/DAPI, listed as 3NPA): not as effective as TTFA

CC1(C)CCC(CN2CCN(c3ccc(C(=O)NS(=O)(=O)c4ccc(NCC5CCOCC5)c([N+](=O)[O-])c4)c(Oc4cnc5[nH]ccc5c4)c3)CC2)=C(c2ccc(Cl)cc2)C1 [ABT-199, 4-(4-{[2-(4-chlorophenyl)-4,4-dimethylcyclohex-1-en-1-yl]methyl}piperazin-1-yl)-N-({3-nitro-4-[(tetrahydro-2H-pyran-4-ylmethyl)amino]phenyl}sulfonyl)-2-(1H-pyrrolo[2,3-b]pyridin-5-yloxy)benzamide]
Share of t(11;14) MM patients responsive to single agent ([2]; listed as venetoclax): About 40%
Share of t(11;14) MM patients responsive to single agent [2]: 40%
Cytotoxicity in normal cells of myeloma patient sample ([3]; bone marrow aspirate of patient sample #2): did not exhibit significant cytotoxicity
Cytotoxicity as single agent in MM ([1]; individually): did not elicit cytotoxicity

O=C(CC(=O)C(F)(F)F)c1cccs1 [TTFA, 4,4,4-trifluoro-1-(thiophen-2-yl)butane-1,3-dione]
Cytotoxicity in normal cells of myeloma patient sample [3]: did not exhibit significant cytotoxicity
Sensitization of MM patient cells to ABT-199 [4]: potent sensitization; also recorded: sensitizes
BIM expression ([5]; SDH inhibition with TTFA): induction of BIM
BIM-Bcl-2 binding (co-immunoprecipitation) ([5]; SDH inhibition with TTFA): enhanced BIM-Bcl-2 binding
Foxo3a localization ([5]; TTFA treated cells): nuclear localization
Foxo3a phosphorylation ([5]; TTFA treated cells): reduction of Foxo3a phosphorylation
Cytotoxicity as single agent in MM [1]: did not elicit cytotoxicity
Sensitization of resistant MM cell lines to ABT-199 [1]: potent sensitization; also recorded: sensitizes MM cells to ABT-199; also recorded: sensitized resistant MM cells to ABT-199
Effect on Dex-induced death ([1]; TTFA 100 uM, DEX 0.5 uM, ABT-199 0.5 uM, 24 hrs): additive to Dex-induced death
SQR activity upon addition of inhibitor [6]: lack of activity
SQR activity at maximal dose of TTFA that did not cause cytotoxicity in MM ([6]; MM cells): inhibited SQR activity

COc1[nH]c(=O)c(C(=O)C(C)CC(C)C(Cl)CCl)c(O)c1OC (centres unmarked) [atpenin A5, 3-[5,6-dichloro-2,4-dimethylhexanoyl]-4-hydroxy-5,6-dimethoxy-1H-pyridin-2-one]
Sensitization of resistant MM cell lines to ABT-199 [1, 7]: sensitizes resistant cell lines

C/C=C(\C)[C@H](O)[C@H](C)/C=C(C)/C=C/C/C(C)=C/Cc1nc(OC)c(OC)c(O)c1C [piericidin]
Sensitization of resistant MM cell lines to ABT-199 [1, 7]: not as effective

malonate
SQR activity upon addition of inhibitor [6]: lack of activity
